Measured values published in patent US8754104B2, “Crystalline salts of quinoline compounds and methods for preparing them” (Active Biotech AB, priority 2004, dated 2014).
Counter-ions that a name gives are not always drawn. Like-named read-outs stand apart in the source and are kept apart here. Each block holds one compound with its values, some of them ahead of it.

Columns and labels:
[1] = assay type: physicochemical; settings: for Degradation (percentage increase of related substances): 6 months
Experimental: Upon storage without any special precautions being taken, some 3-quinolinecarboxamide derivatives of formula (I) are degraded at an unacceptable rate. At storage during accelerated conditions, that is 40° C. and a relative humidity of 75%, the degradation of some 3-quinoline-carboxamide derivatives can exceed 2% in a period of 6 months (Table 1).
This is evident from a comparison of N-ethyl-N-phenyl-5-chloro-1,2-dihydro-4-hydroxy-1-methyl-2-oxo-3-quinolinecarboxamide (hereinafter called compound A) with the sodium salt of N-ethyl-N-phenyl-5-chloro-1,2-dihydro-4-hydroxy-1-methyl-2-oxo-3-quinolinecarboxamide (hereinafter called compound A sodium). While at 40° C. and a relative humidity of 75% less than 0.01% of compound A sodium in solid state is converted to degradation products in a period of 24 months, 0.31% of compound A is degraded during a 6-month period. Another example of a 3-quinolinecarboxamide derivative susceptible to degradation is N-ethyl-N-phenyl-5-ethyl-1,2-dihydro-4-hydroxy-1-methyl-2-oxo-3-quinolinecarboxamide (hereinafter called compound B), see Table 1.

[2] = Compatibility study, binary mixtures (1:1) of excipient and test substance; assay type: physicochemical
Source text: Generally, any tendency of instability is exacerbated when a compound of formula (II) is formulated with various excipients. It is clear that the salt form is preferred as drug substance in any binary mixtures of said compound.

[3] = Solubility in water at room temperature; assay type: physicochemical; settings: for solubility: water
[4] = Investigation of the degradation rate (reactivity index) in solution; assay type: physicochemical; settings: 1-% 0.01M hydrochloric acid in n-propanol, 45 to 60° C., HPLC; relative to Roquinimex defined to 1.0; index 2.0 = 26% per hour
Experimental: The degradation rate, hereinafter called the reactivity index, of compound of formula (I) was determined in solution. Roquinimex (Merck Index 12th Ed., No. 8418; Linomide®, LS2616, N-methyl-N-phenyl-1,2-dihydro-4-hydroxy-1-methyl-2-oxo-3-quinolinecarboxamide) was selected as a reference compound with the reactivity index defined to 1.0. A medium of 1-% 0.01M hydrochloric acid in n-propanol was selected. The reaction temperature was in the range of 45 to 60° C. The 3-quinolinecarboxamide derivative of formula (I) was added to the n-propanol solution. The reaction transfers the compound to an n-propylester. The reaction was stopped after 0, 2 and 4 hours, and analysis was carried out by means of HPLC with UV detection. The disappearance of the 3-quinolinecarboxamide derivative was used for evaluation of the reactivity index, but as an alternative also the formation of the n-propylester may be used. A reactivity index of […] at 60° C., a reactivity index of 2.0 corresponds to a degradation rate of 26% per hour etc.

[5] = 1:1 mixture with Colloidal silica (Aerosil 200), +40° C./75% RH, 6 months
[6] = 1:1 mixture with Maize Starch, +40° C./75% RH, 6 months
[7] = 1:1 mixture with Mannitol (Pearlitol 200SD), +40° C./75% RH, 6 months
[8] = 1:1 mixture with Microcrystalline Cellulose (Avicel PH-, +40° C./75% RH, 6 months)

“Shelf-life” (storage time without degradation exceeding 0.5%) [1]: <1 months
Degradation (percentage increase of related substances) [1]: 2.0%
Reactivity index [4]: 4.6
SMILES: CCc1cccc2c1c(O)c(C(=O)N(CC)c1ccccc1)c(=O)n2C [Compound B, N-ethyl-N-phenyl-5-ethyl-1,2-dihydro-4-hydroxy-1-methyl-2-oxo-3-quinolinecarboxamide]

Reactivity index [4]: 2.6
SMILES: CN(C(=O)c1c(O)c2c(Cl)cccc2n(C)c1=O)c1ccc(F)cc1F [Compound C, N-methyl-N-(2,4-difluorophenyl)-5-chloro-1,2-dihydro-4-hydroxy-1-methyl-2-oxo-3-quinolinecarboxamide]

Reactivity index [4]: >10
SMILES: Cc1cccc2c1c(O)c(C(=O)N(C)c1ccc(C(F)(F)F)cc1)c(=O)n2C [Compound D, N-methyl-N-(4-trifluorophenyl)-1,2-dihydro-1,5-dimethyl-4-hydroxy-1-methyl-2-oxo-3-quinolinecarboxamide]

Reactivity index [4]: >10
SMILES: CCN(C(=O)c1c(O)c2c(SC)cccc2n(C)c1=O)c1ccccc1 [Compound F, N-ethyl-N-phenyl-5-methylthio-1,2-dihydro-4-hydroxy-1-methyl-2-oxo-3-quinolinecarboxamide]

solubility ([3]; room temperature): 300 µg/mL
SMILES: CCc1cccc2c1c(O)c(C(=O)N(CC)c1ccccc1)c(=O)n2C [Example 7, N-Ethyl-N-phenyl-5-ethyl-1,2-dihydro-4-hydroxy-1-methyl-2-oxo-3-quinolinecarboxamide zinc salt]

Reactivity index [4]: 1.0
SMILES: CN(C(=O)c1c(O)c2ccccc2n(C)c1=O)c1ccccc1 [Roquinimex, N-methyl-N-phenyl-1,2-dihydro-4-hydroxy-1-methyl-2-oxo-3-quinolinecarboxamide, reference compound]

Further lines, the compound ahead of its results:

SMILES: CCN(C(=O)c1c(O)c2c(Cl)cccc2n(C)c1=O)c1ccccc1.[Na] [Compound A sodium, N-Ethyl-N-phenyl-5-chloro-1,2-dihydro-4-hydroxy-1-methyl-2-oxo-3-quinolinecarboxamide sodium salt]
“Shelf-life” (storage time without degradation exceeding 0.5%) [1]: >6 months
Degradation (percentage increase of related substances) [1]: <0.01%^3
Converted to degradation products ([1]; 24 months): less than 0.01%
Degradation (percentage increase of related substances) [2, 5]: 1.5%
Degradation (percentage increase of related substances) [2, 6]: 0.05%
Degradation (percentage increase of related substances) [2, 7]: 0.05%
Degradation (percentage increase of related substances) [2, 8]: 0.31%
solubility ([3]; room temperature): 138000 µg/mL

SMILES: CCN(C(=O)c1c(O)c2c(Cl)cccc2n(C)c1=O)c1ccccc1 [Compound A, N-ethyl-N-phenyl-5-chloro-1,2-dihydro-4-hydroxy-1-methyl-2-oxo-3-quinolinecarboxamide]
“Shelf-life” (storage time without degradation exceeding 0.5%) [1]: >6 months
Degradation (percentage increase of related substances) [1]: 0.31%
Degradation (percentage increase of related substances) [2, 5]: 20%
Degradation (percentage increase of related substances) [2, 6]: 0.41%
Degradation (percentage increase of related substances) [2, 7]: 0.45%
Degradation (percentage increase of related substances) [2, 8]: 1.1%
Reactivity index [4]: 3.1

SMILES: CCN(C(=O)c1c(O)c2c3c(ccc2n(C)c1=O)OCO3)c1ccccc1 [Compound E, N-ethyl-N-phenyl-5,6-methylenedioxy-1,2-dihydro-4-hydroxy-1-methyl-2-oxo-3-quinolinecarboxamide]
Reactivity index [4]: 2.9

SMILES: CCN(C(=O)c1c(O)c2c(Cl)cccc2n(C)c1=O)c1ccccc1 [Example 3, N-Ethyl-N-phenyl-5-chloro-1,2-dihydro-4-hydroxy-1-methyl-2-oxo-3-quinolinecarboxamide calcium salt]
Solubility in water (in words) [3]: sparingly soluble in water
solubility ([3]; room temperature): ~1000 µg/mL

SMILES: CCc1cccc2c1c(O)c(C(=O)N(CC)c1ccccc1)c(=O)n2C.[Li] [Example 5, N-Ethyl-N-phenyl-5-ethyl-1,2-dihydro-4-hydroxy-1-methyl-2-oxo-3-quinolinecarboxamide lithium salt]
solubility ([3]; room temperature): 18000 µg/mL

SMILES: CCc1cccc2c1c(O)c(C(=O)N(CC)c1ccccc1)c(=O)n2C.[Ca] [Example 6A, Crystalline N-Ethyl-N-phenyl-5-ethyl-1,2-dihydro-4-hydroxy-2-methyl-2-oxo-3-quinolinecarboxainide calcium salt]
Solubility in water ([3]; room temperature): 300 µg/mL
